In patent US4594329A, “CRF analogs” (The Salk Institute for Biological Studies, priority 1984, dated 1986):
Square brackets hold non-standard residues; d marks the D form. Peptide text beside a SMILES is read from it. hArg = N=C(N)NCCCC[C@H](N)C(=O)O; Nle = CCCC[C@H](N)C(=O)O; Orn = NCCC[C@H](N)C(=O)O

Assays:
[1] = in mammals; cited from earlier work
[2] = test system: secretion of ACTH and β-endorphin; details: in mammals; cited from earlier work
[3] = test system: cultured rat pituitary cells; assay: secretion of ACTH and β-endorphin by cultured rat pituitary cells; type: cell-based; details: general procedure of Example III
Protocol: (§1) The synthetic peptide AHC and oCRF were examined for their effects on the secretion of ACTH and β-endorphin in vitro and was also in vivo. The potency of synthetic oCRF to stimulate the secretion of ACTH and β-endorphin by cultured rat pituitary cells was measured using the procedure as generally set forth in Endocrinology, 91, 562 (1972). […] In vivo testing is carried out using the general procedure set forth in C. Rivier et al., Science, 218, 377 (1982).

[4] = lowering of blood pressure, in vivo testing; details: for lowering of blood pressure: general procedure of Example III; for lowering of blood pressure compared with rCRF: comparison with rCRF
Protocol: as §1

[5] = rats; administered into the ventricles; cited from earlier work

CC[C@H](C)[C@H](NC(=O)[C@@H](NC(=O)[C@H](CC(=O)O)NC(=O)[C@H](CC(C)C)NC(=O)[C@H](CC(C)C)NC(=O)[C@H](CC(C)C)NC(=O)[C@H](CCCNC(=N)N)NC(=O)[C@H](CC(N)=O)NC(=O)[C@H](CC(N)=O)NC(=O)[C@H](C)NC(=O)[C@H](C)NC(=O)[C@H](CCC(N)=O)NC(=O)[C@H](CCC(N)=O)NC(=O)[C@H](CCCCN)NC(=O)[C@H](CCC(=O)O)NC(=O)[C@H](CCCCN)NC(=O)[C@H](CCC(=O)O)NC(=O)[C@H](CCC(N)=O)NC(=O)[C@H](CCCCN)NC(=O)[C@H](CCC(=O)O)NC(=O)[C@@H](NC(=O)[C@H](CCC(=O)O)NC(=O)[C@@H](NC(=O)[C@H](CCSC)NC(=O)[C@H](CCCCN)NC(=O)[C@H](CCCNC(=N)N)NC(=O)[C@H](CC(C)C)NC(=O)[C@H](CC(C)C)NC(=O)[C@H](CCC(=O)O)NC(=O)[C@H](CC(C)C)NC(=O)[C@H](CO)NC(=O)[C@H](CC(C)C)NC(=O)[C@H](CC(=O)O)NC(=O)[C@@H](NC(=O)[C@H](CO)NC(=O)[C@@H](NC(=O)[C@@H]1CCCN1C(=O)[C@@H]1CCCN1C(=O)CNC(=O)[C@@H]1CCC(=O)N1)[C@@H](C)CC)[C@@H](C)CC)[C@@H](C)CC)[C@@H](C)CC)[C@@H](C)O)C(N)=O [Sauvagine]
biological activity in lowering blood pressure (reported) [1]: biological activity in lowering blood pressure in mammals | biological activity in stimulating the secretion of ACTH and β-endorphin (reported) [2]: stimulating the secretion of ACTH and β-endorphin

CC[C@H](C)[C@H](NC(=O)[C@@H]1CCCN1C(=O)[C@@H]1CCCN1)C(=O)N[C@@H](CO)C(=O)N[C@@H](CC(C)C)C(=O)N[C@@H](CC(=O)O)C(=O)N[C@@H](CC(C)C)C(=O)N[C@H](C(=O)N[C@@H](CC(C)C)C(=O)N[C@@H](Cc1c[nH]cn1)C(=O)N[C@@H](CC(C)C)C(=O)N[C@@H](CC(C)C)C(=O)N[C@@H](CCCNC(=N)N)C(=O)N[C@@H](CCC(=O)O)C(=O)N[C@@H](CCSC)C(=O)N[C@@H](CC(C)C)C(=O)N[C@@H](CCC(=O)O)C(=O)N[C@@H](CCSC)C(=O)N[C@@H](CCC(=O)O)C(=O)N[C@@H](CCCN)C(=O)N[C@@H](C)C(=O)N[C@@H](CCC(=O)O)C(=O)N[C@@H](CCC(N)=O)C(=O)N[C@@H](CCC(=O)O)C(=O)N[C@@H](C)C(=O)N[C@@H](CCC(=O)O)C(=O)N[C@@H](CCC(N)=O)C(=O)N[C@@H](C)C(=O)N[C@@H](C)C(=O)N[C@@H](CC(C)C)C(=O)N[C@@H](CC(N)=O)C(=O)N[C@@H](CCCNC(=N)N)C(=O)N[C@@H](CCCCNC(=N)N)C(=O)N[C@@H](CC(C)C)C(=O)N[C@@H](CC(C)C)C(=O)N[C@@H](CCC(=O)O)C(=O)N[C@@H](CCC(=O)O)C(=O)N[C@@H](C)C(N)=O)[C@@H](C)O (H-PPISLDLTLHLLREMLEME[Orn]AEQEAEQAALNR[hArg]LLEEA-NH2)
stimulates the secretion of ACTH and β-END-LI [3]: stimulates the secretion of ACTH and β-END-LI | lowering of blood pressure [4]: very significant lowering of bloood pressure

H-SEEPPIS[Nle]DLSFHLLREVLEMARAEQLAQQAHLNRKLMEEI-NH2 [[Nle^8, Ser^11, Leu^33, Glu^40]-rCRF]
stimulates the secretion of ACTH and β-END-LI [3]: stimulates the secretion of ACTH and β-END-LI | lowering of blood pressure [4]: very significant lowering of blood pressure

H-SEEPPISLDLTFHLLREVLE[Nle]ARAEQLAQQAYLNRKLMEEI-NH2 [[Nle^21, Tyr^32, Leu^33, Glu^40]-rCRF]
stimulates the secretion of ACTH and β-END-LI [3]: stimulates the secretion of ACTH and β-END-LI | lowering of blood pressure compared with rCRF [4]: to a greater extent than rCRF | lowering of blood pressure [4]: very significant lowering of blood pressure

H-SQEPPISLDLTFHLLRE[Nle]LE[Nle]TKADQLRQQAHSNRKLLDIA-NH2 [[Nle^18,21,Arg^28]-oCRF]
stimulates the secretion of ACTH and β-END-LI [3]: stimulates the secretion of ACTH and β-END-LI | lowering of blood pressure [4]: very significant lowering of blood pressure

CC[C@H](C)[C@H](NC(=O)[C@H](CCC(=O)O)NC(=O)[C@H](CC(=O)O)NC(=O)[C@H](CCSC)NC(=O)[C@H](CC(C)C)NC(=O)[C@H](CCCCNC(=N)N)NC(=O)[C@H](CCCNC(=N)N)NC(=O)[C@H](CC(N)=O)NC(=O)[C@H](CC(N)=O)NC(=O)[C@H](C)NC(=O)[C@H](C)NC(=O)[C@H](CCC(N)=O)NC(=O)[C@H](CCC(N)=O)NC(=O)[C@H](CCCCN)NC(=O)[C@H](CC(C)C)NC(=O)[C@H](CCCCN)NC(=O)[C@H](CCC(=O)O)NC(=O)[C@H](CCC(N)=O)NC(=O)[C@H](CCCCN)NC(=O)[C@H](CCC(=O)O)NC(=O)[C@@H](NC(=O)[C@H](CCC(=O)O)NC(=O)[C@@H](NC(=O)[C@H](CCSC)NC(=O)[C@H](CCCCN)NC(=O)[C@H](CCCNC(=N)N)NC(=O)[C@H](CC(C)C)NC(=O)[C@H](CC(C)C)NC(=O)[C@H](CCC(=O)O)NC(=O)[C@H](CC(C)C)NC(=O)[C@H](CO)NC(=O)[C@H](CC(C)C)NC(=O)[C@H](CC(=O)O)NC(=O)[C@@H](NC(=O)[C@H](CO)NC(=O)[C@@H](NC(=O)[C@@H]1CCCN1C(=O)[C@@H]1CCCN1C(=O)CNC(=O)[C@@H]1CCC(=O)N1)[C@@H](C)CC)[C@@H](C)CC)[C@@H](C)CC)[C@@H](C)CC)C(N)=O
stimulates the secretion of ACTH and β-END-LI [3]: stimulates the secretion of ACTH and β-END-LI | lowering of blood pressure [4]: very significant lowering of blood pressure

Ac-PPISLDLTFHLLREVLEMARAEQLAEQAHSNRKYMEEI-NH2
stimulates the secretion of ACTH and β-END-LI [3]: stimulates the secretion of ACTH and β-END-LI | lowering of blood pressure compared with rCRF [4]: to a greater extent than rCRF | lowering of blood pressure [4]: very significant lowering of blood pressure

H-PPISLDLTFHLLREVLEMARAEQLAQQAHLNRKLMEQI-NH2
stimulates the secretion of ACTH and β-END-LI [3]: stimulates the secretion of ACTH and β-END-LI | lowering of blood pressure [4]: very significant lowering of blood pressure

CCCC[C@H](NC(=O)[C@H](CCC(=O)O)NC(=O)[C@H](CC(C)C)NC(=O)[C@H](CCCC)NC(=O)[C@H](CCC(=O)O)NC(=O)[C@H](CCCNC(=N)N)NC(=O)[C@H](CC(C)C)NC(=O)[C@H](CC(C)C)NC(=O)[C@H](Cc1c[nH]cn1)NC(=O)[C@H](Cc1ccccc1)NC(=O)[C@@H](NC(=O)[C@H](CC(C)C)NC(=O)[C@H](CC(=O)O)NC(=O)[C@H](CC(C)C)NC(=O)[C@H](CO)NC(=O)[C@@H](NC(=O)[C@@H]1CCCN1C(=O)[C@H]1CCCN1)[C@@H](C)CC)[C@@H](C)O)C(=O)N[C@@H](C)C(=O)N[C@@H](CCCCN)C(=O)N[C@@H](C)C(=O)N[C@@H](CCC(=O)O)C(=O)N[C@@H](CCC(N)=O)C(=O)N[C@@H](CCC(=O)O)C(=O)N[C@@H](C)C(=O)N[C@@H](CCC(=O)O)C(=O)N[C@@H](CCC(N)=O)C(=O)N[C@@H](C)C(=O)N[C@@H](C)C(=O)N[C@@H](CC(C)C)C(=O)N[C@@H](CC(N)=O)C(=O)N[C@@H](CCCNC(=N)N)C(=O)N[C@@H](CC(C)C)C(=O)N[C@@H](CC(C)C)C(=O)N[C@@H](CC(C)C)C(=O)N[C@@H](CCC(=O)O)C(=O)N[C@@H](CCC(=O)O)C(=O)N[C@@H](C)C(N)=O [[D-Pro^4, Nle^18,21]-AHC(4-41)] (H-[dP]PISLDLTFHLLRE[Nle]LE[Nle]AKAEQEAEQAALNRLLLEEA-NH2)
secretion of ACTH and β-END-LI, amount relative to oCRF ([3]; % of oCRF): about 160% | lowering of blood pressure [4]: very significant lowering of blood pressure

H-YSEEPPISLDLTFHLLREVLEMARAEQLAEQAHSNRKLMEII-NH2 [[Tyr-Ser^1, Glu^29]-rCRF]
stimulates the secretion of ACTH and β-END-LI [3]: stimulates the secretion of ACTH and β-END-LI | lowering of blood pressure [4]: very significant lowering of blood pressure

H-SQEPPISLDLTFALLREMLEMAKAEQEAEQAALNRLLLEEA-NH2 [[Ala^13]-AHC]
stimulates the secretion of ACTH and β-END-LI [3]: stimulates the secretion of ACTH and β-END-LI | lowering of blood pressure [4]: very significant lowering of blood pressure

H-SEEPPISLDLTFHLLREVLE[Nle]A[hArg]AEQLAQQAHLNRKLMEE[Nle]-NH2
stimulates the secretion of ACTH and β-END-LI [3]: stimulates the secretion of ACTH and β-END-LI | lowering of blood pressure [4]: very significant lowering of blood pressure

CRF: corticotropin releasing factor, the hentetracontapeptide; species not stated at the place (H-SEEPPISLDLTFHLLREVLEMARAEQLAQQAHSNRKLMEII-NH2; ends and bridges not checked; UniProt P06850 154-194, looked up)
activity [5]: increases activity | learning performance [5]: improves learning performance
